Here are results for 4 compounds from ChEMBL document CHEMBL3525955, “Glucuronidation of the red clover isoflavone irilone by liver microsomes from different species and human UDP-glucuronosyltransferases” (Drug Metab Dispos, 2011).

Holding throughout (assay type): ADME
Data set [1] concerns the target T1, UDP-glucuronosyltransferase 1A8 (Homo sapiens, UniProt Q9HAW9).
T1 sequence (Q9HAW9 whole entry): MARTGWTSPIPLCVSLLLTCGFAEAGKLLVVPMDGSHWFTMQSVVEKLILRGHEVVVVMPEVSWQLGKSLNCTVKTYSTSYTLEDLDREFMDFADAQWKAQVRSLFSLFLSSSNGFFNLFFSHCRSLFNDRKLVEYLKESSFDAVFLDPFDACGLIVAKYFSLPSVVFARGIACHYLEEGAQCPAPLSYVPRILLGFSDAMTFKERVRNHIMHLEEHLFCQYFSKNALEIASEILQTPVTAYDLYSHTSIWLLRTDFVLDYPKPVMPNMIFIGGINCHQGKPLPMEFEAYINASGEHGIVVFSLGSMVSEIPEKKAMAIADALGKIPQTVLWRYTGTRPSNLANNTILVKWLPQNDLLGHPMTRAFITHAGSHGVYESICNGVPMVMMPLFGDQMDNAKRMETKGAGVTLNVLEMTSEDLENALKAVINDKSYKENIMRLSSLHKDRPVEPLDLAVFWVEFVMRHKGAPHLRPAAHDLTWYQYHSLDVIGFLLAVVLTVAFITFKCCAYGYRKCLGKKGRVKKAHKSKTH
The experiment in a line: Drug level assessed as human recombinant UGT1A8-mediated glucuronidation treated with 25 uM irilone incubated for 5 mins prior to UDPGA addition measured after 90 mins by HPLC-DAD analysis. To be noted: recombinant enzyme, 1.5 h.

Data set [2] has as its target T2, UDP-glucuronosyltransferase 1A9 (Homo sapiens, UniProt O60656).
T2 sequence (O60656 whole entry): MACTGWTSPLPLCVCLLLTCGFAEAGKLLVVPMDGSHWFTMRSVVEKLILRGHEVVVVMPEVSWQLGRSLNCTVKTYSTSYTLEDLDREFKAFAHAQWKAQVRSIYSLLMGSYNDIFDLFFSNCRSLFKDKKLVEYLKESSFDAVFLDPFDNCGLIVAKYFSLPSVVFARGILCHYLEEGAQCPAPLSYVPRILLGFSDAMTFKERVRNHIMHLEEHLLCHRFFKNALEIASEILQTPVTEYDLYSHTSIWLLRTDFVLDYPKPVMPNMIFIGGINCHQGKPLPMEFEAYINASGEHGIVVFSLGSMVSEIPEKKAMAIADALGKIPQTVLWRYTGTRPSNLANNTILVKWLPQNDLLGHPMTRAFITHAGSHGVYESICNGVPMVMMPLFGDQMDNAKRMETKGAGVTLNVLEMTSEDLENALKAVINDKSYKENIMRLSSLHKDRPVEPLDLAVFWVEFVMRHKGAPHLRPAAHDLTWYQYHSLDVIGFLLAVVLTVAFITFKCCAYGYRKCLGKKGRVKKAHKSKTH
The experiment in a line: Drug level assessed as human recombinant UGT1A9-mediated glucuronidation formation treated with irilone incubated for 5 mins prior to UDPGA addition measured after 90 mins by HPLC-DAD analysis. The note with it: recombinant enzyme, 1.5 h.

The target of data set [3] is T3, UDP-glucuronosyltransferase 1A1 (Homo sapiens, UniProt P22309).
T3 sequence (P22309 whole entry): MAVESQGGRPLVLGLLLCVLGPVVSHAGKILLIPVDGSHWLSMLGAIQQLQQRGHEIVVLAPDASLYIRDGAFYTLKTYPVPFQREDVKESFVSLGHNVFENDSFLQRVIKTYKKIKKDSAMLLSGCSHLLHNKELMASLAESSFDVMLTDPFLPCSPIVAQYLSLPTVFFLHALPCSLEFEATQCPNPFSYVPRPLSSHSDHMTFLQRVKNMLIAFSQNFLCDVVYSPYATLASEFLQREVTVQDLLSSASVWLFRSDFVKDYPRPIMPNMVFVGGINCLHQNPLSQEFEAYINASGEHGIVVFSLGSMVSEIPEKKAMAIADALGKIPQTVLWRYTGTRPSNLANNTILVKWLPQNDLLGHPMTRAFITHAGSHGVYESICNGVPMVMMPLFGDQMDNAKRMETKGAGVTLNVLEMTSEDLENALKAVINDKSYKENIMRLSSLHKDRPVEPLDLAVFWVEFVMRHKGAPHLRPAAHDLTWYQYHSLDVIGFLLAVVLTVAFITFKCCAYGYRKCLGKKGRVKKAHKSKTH
The experiment in a line: Drug level assessed as human recombinant UGT1A1-mediated glucuronidation treated with 25 uM irilone incubated for 5 mins prior to UDPGA addition measured after 90 mins by HPLC-DAD analysis. To be noted: recombinant enzyme, 1.5 h.

The target in data set [4] is T4, UDP-glucuronosyltransferase 1A7 (Homo sapiens, UniProt Q9HAW7).
T4 sequence (Q9HAW7 whole entry): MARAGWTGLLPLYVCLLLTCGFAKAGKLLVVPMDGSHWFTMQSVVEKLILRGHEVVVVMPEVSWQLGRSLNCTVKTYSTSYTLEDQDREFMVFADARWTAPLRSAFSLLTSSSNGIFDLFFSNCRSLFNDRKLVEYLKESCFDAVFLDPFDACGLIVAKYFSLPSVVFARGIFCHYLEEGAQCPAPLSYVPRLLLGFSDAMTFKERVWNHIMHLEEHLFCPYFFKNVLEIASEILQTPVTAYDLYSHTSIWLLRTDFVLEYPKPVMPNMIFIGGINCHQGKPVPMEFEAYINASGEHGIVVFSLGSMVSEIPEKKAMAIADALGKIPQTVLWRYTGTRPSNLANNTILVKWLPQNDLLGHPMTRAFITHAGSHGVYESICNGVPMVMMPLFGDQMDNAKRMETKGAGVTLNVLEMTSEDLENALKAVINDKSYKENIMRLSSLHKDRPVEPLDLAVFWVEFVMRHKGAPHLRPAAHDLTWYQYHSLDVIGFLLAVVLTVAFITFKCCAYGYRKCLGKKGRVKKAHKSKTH
The experiment in a line: Drug level assessed as human recombinant UGT1A7-mediated glucuronidation treated with 25 uM irilone incubated for 5 mins prior to UDPGA addition measured after 90 mins by HPLC-DAD analysis. To be noted: recombinant enzyme, 1.5 h.

For data set [5], the target named is T2, UDP-glucuronosyltransferase 1A9. The experiment in a line: Activity of human recombinant UGT1A9 at 100 uM. The note with it: recombinant enzyme.
In data set [6] the target is T5, UDP-glucuronosyltransferase 1A10 (Homo sapiens, UniProt Q9HAW8).
T5 sequence (Q9HAW8 whole entry): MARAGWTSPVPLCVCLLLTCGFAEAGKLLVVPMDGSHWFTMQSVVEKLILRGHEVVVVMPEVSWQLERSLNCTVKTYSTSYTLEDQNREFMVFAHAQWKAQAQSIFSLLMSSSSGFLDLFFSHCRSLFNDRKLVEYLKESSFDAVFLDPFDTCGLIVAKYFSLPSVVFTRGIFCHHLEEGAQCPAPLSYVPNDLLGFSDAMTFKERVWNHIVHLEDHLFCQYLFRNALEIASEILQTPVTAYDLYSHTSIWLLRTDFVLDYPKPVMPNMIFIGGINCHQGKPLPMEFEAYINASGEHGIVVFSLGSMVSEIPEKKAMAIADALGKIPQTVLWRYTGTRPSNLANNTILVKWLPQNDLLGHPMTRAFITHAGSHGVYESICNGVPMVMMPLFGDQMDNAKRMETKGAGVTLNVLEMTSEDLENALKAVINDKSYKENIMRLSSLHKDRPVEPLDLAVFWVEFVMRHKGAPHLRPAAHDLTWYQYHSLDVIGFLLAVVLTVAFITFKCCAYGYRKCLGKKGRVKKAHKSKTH
The experiment in a line: Activity of human recombinant UGT1A10 at 100 uM. The note with it: recombinant enzyme.

For data set [7], the target named is T2, UDP-glucuronosyltransferase 1A9. The experiment in a line: Activity of human recombinant UGT1A9 assessed as […]-O-4'-monoglucuronide formation incubated for 5 mins prior to UDPGA addition measured after 90 mins by HPLC-DAD analysis. To be noted: recombinant enzyme, 1.5 h.
Data set [8] deals with T5, UDP-glucuronosyltransferase 1A10. The experiment in a line: Activity of human recombinant UGT1A10 assessed as […]-O-4'-monoglucuronide formation incubated for 5 mins prior to UDPGA addition measured after 90 mins by HPLC-DAD analysis. To be noted: recombinant enzyme, 1.5 h.

In the case of `O=C(O)[C@H]1O[C@@H](Oc2c3c(cc4occ(-c5ccc(O)cc5)c(=O)c24)OCO3)[C@H](O)[C@@H](O)[C@@H]1O`, the Drug metabolism entry in data set [1], in data set [2], in data set [3] and in data set [4] was “metabolite_detected” throughout.
As for `O=c1c(-c2ccc(O)cc2)coc2cc(O)cc(O)c12` [GENISTEIN], the Activity in data set [5] and in data set [6] was 0.5 nmol/mg/min in each case.
`COc1c2c(cc3occ(-c4ccc(O)cc4)c(=O)c13)OCO2` [IRISOLONE]: the Drug metabolism entry was “metabolite_not_detected” in data set [7] and “metabolite_detected” in data set [8].
With `O=c1c(-c2ccc(O)cc2)coc2cc(O)ccc12` [DAIDZEIN], the Activity in data set [5] and in data set [6] was 0.5 nmol/mg/min each time.
